From patent US20240270762A1, “PENICILLIN-BINDING PROTEIN INHIBITORS” (priority 2021, published 2024)
≈ marks a conversion by molar mass, not a printed value.

What was measured:
E. coli ATCC 25922 = assay: microbe, parasite or virus in culture; type: cell-based; conditions: Escherichia coli, ATCC25922, read-out: MIC E. coli 25922
[1] = molecular target: T1, PBP3 from Pseudomonas aeruginosa (PAO1) (Pseudomonas aeruginosa, UniProt G3XD46); assay: Bocillin-FL fluorescence polarization competition binding, P. aeruginosa PBP3; conditions: Binding affinity to P. aeruginosa PBP3; fluorescence polarization competition binding assay using Bocillin-FL; read-out: P. aeruginosa PBP3 Potency
T1 construct: made in house
Outline: (§1)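 Purified PBP was preincubated with inhibitor (E. coli PBP3 1.5 μM, 30 min; P. aeruginosa PBP3 0.75 μM, A. baumannii PBP3 0.2 μM and PBP1a 1 μM, 15 min), then Bocillin-FL (0.1 μM; 0.05 μM for PBP1a) added and FP read up to 60 min. EC50 = 50% loss of bound probe.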

[2] = system: P. aeruginosa (ΔmexAB-oprM); assay: Broth microdilution MIC in CAMHB; type: cell-based; conditions: Pseudomonas aeruginosa; read-out: MIC P. aeruginosa ΔmexAB-oprM
K. pneumoniae SI-117 = assay: microbe, parasite or virus in culture; type: cell-based; conditions: Klebsiella pneumoniae, SI117, read-out: MIC K. pneumoniae SI-117
[3] = molecular target: T2, PBP3 from Acinetobacter baumannii (ATCC 19606) (Acinetobacter baumannii, UniProt A0ABX6CK25); assay: Bocillin-FL fluorescence polarization competition binding, A. baumannii PBP3; conditions: fluorescence polarization competition binding assay using Bocillin-FL; read-out: A. baumannii PBP3 Potency
T2 sequence (A0ABX6CK25 64-610): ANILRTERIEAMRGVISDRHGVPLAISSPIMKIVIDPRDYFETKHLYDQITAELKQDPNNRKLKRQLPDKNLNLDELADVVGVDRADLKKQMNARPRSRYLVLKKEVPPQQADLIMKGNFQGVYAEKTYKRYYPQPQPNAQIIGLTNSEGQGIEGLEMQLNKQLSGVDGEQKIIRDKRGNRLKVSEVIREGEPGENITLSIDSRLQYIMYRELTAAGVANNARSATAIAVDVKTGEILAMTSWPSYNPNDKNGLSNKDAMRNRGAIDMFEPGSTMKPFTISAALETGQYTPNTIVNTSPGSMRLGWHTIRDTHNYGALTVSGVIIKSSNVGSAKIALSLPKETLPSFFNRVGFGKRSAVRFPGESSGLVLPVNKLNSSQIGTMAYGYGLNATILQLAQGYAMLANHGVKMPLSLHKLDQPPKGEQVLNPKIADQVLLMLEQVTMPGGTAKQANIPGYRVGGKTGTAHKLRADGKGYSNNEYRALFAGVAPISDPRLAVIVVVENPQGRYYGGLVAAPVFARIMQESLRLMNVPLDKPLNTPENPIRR
Outline: as §1

P. aeruginosa ATCC 27853 = assay: microbe, parasite or virus in culture; type: cell-based; conditions: Pseudomonas aeruginosa, ATCC27853, read-out: Minimum inhibitory concentration, P. aeruginosa ATCC 27853
P. aeruginosa CDC-0095 = assay: microbe, parasite or virus in culture; type: cell-based; conditions: Pseudomonas aeruginosa, CDC0095, read-out: Minimum inhibitory concentration, P. aeruginosa CDC-0095
P. aeruginosa CDC-0054 = assay: microbe, parasite or virus in culture; type: cell-based; conditions: Pseudomonas aeruginosa, CDC0054, read-out: Minimum inhibitory concentration, P. aeruginosa CDC-0054

T1 sequence (G3XD46 whole entry): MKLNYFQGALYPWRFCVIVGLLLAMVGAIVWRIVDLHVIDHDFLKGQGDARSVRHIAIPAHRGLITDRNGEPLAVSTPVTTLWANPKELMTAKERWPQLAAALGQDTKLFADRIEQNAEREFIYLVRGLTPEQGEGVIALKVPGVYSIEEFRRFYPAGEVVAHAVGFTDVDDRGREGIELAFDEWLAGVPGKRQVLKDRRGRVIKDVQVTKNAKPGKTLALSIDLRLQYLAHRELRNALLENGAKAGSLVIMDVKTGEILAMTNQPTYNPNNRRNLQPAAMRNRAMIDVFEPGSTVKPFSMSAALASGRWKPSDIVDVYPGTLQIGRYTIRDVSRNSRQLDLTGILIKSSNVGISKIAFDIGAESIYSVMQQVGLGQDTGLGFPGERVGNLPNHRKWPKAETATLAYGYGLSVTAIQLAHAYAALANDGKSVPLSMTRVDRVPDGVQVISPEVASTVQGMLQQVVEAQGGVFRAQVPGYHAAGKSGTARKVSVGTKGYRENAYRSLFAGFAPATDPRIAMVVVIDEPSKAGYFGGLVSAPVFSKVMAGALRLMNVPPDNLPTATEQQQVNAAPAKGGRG

Row | SMILES | MIC (E. coli ATCC 25922) [µg/mL] | IC50 [1] [µM] | MIC [2] [µg/mL] | MIC (K. pneumoniae SI-117) [µg/mL] | IC50 [3] [µM] | MIC (P. aeruginosa ATCC 27853) [µg/mL] | MIC (P. aeruginosa CDC-0095) [µg/mL] | MIC (P. aeruginosa CDC-0054) [µg/mL]
1 | O=C(O)c1cccc2c1OB(O)[C@@H](NC(=O)C(NC(=O)N1CCCNC1=O)c1ccc(P(=O)(O)O)cc1)C2 (stereo partly drawn) [Example 56, (3R)-2-hydroxy-3-(2-(2-oxohexahydropyrimidine-1-carboxamido)-2-(4-phosphonophenyl)acetamido)-3,4-dihydro-2H-benzo[e][1,2]oxaborinine-8-carboxylic acid] | > 128 | < 10 | > 128 | > 128 |  |  |  | 
2 | O=C(O)c1cccc2c1OB(O)[C@@H](NC(=O)[C@H](NC(=O)c1cccn(C(F)F)c1=O)c1ccc(P(=O)(O)O)cc1)C2 (single isomer, unassigned) [Example 191] | > 128 | < 10 | 8 to 16 (≈ 13.5 to 27.1 µM) | > 128 |  |  |  | 
3 | CCN1CCN(C(=O)NC(C(=O)N[C@H]2Cc3cccc(C(=O)O)c3OB2O)c2ccc(S(=O)(=O)O)cc2)C(=O)C1=O (stereo partly drawn) [Example 189, (3R)-3-(2-(4-ethyl-2,3-dioxopiperazine-1-carboxamido)-2-(4-sulfophenyl)acetamido)-2-hydroxy-3,4-dihydro-2H-benzo[e][1,2]oxaborinine-8-carboxylic acid] | > 128 | < 10 | 8 to 16 (≈ 13.6 to 27.2 µM) | > 128 |  |  |  | 
4 | CC(=O)N1CCC[C@@H]1C(=O)N[C@H](C(=O)N[C@H]1Cc2cccc(C(=O)O)c2OB1O)c1ccc(P(=O)(O)O)cc1 [Example 33, (3R)-3-(2-((R)-1-acetylpyrrolidine-2-carboxamido)-2-(4-phosphonophenyl)acetamido)-2-hydroxy-3,4-dihydro-2H-benzo[e][1,2]oxaborinine-8-carboxylic acid] | > 128 | 10 to 50 | > 128 | > 128 |  |  |  | 
5 | CCN1CCN(C(=O)NC(C(=O)N[C@H]2Cc3cccc(C(=O)O)c3OB2O)c2c(F)cc(P(=O)(O)O)cc2F)C(=O)C1=O (stereo partly drawn) [Example 25, (3R)-3-(2-(2,6-difluoro-4-phosphonophenyl)-2-(4-ethyl-2,3-dioxopiperazine-1-carboxamido)acetamido)-2-hydroxy-3,4-dihydro-2H-benzo[e][1,2]oxaborinine-8-carboxylic acid] | > 128 | < 10 | 32 to 64 (≈ 51.3 to 103 µM) | > 128 |  |  |  | 
6 | O=C(O)c1cccc2c1OB(O)[C@@H](NC(=O)[C@H](NC(=O)c1ccn[nH]c1=O)c1ccc(P(=O)(O)O)cc1)C2 (single isomer, unassigned) [Example 178] | > 128 | < 10 | 8 to 16 (≈ 14.8 to 29.5 µM) | > 128 |  |  |  | 
7 | CN1CCCN(C(=O)NC(C(=O)N[C@H]2Cc3cccc(C(=O)O)c3OB2O)c2ccc(P(=O)(O)O)cc2)C1=O (stereo partly drawn) [Example 38, (3R)-2-hydroxy-3-(2-(3-methyl-2-oxohexahydropyrimidine-1-carboxamido)-2-(4-phosphonophenyl)acetamido)-3,4-dihydro-2H-benzo[e][1,2]oxaborinine-8-carboxylic acid] | > 128 | < 10 | 32 to 64 (≈ 57.1 to 114 µM) | > 128 |  |  |  | 
8 | CCC(=O)NC(C(=O)N[C@H]1Cc2cccc(C(=O)O)c2OB1O)c1ccc(P(=O)(O)O)cc1 (stereo partly drawn) [Example 27, (3R)-2-hydroxy-3-(2-(4-phosphonophenyl)-2-propionamidoacetamido)-3,4-dihydro-2H-benzo[e][1,2]oxaborinine-8-carboxylic acid] | > 128 | 10 to 50 | > 128 | > 128 |  |  |  | 
9 | O=C(O)c1cccc2c1OB(O)[C@@H](NC(=O)C(NC(=O)c1ncccc1Cl)c1ccc(P(=O)(O)O)cc1)C2 (stereo partly drawn) [Example 183, (3R)-3-(2-(3-chloropicolinamido)-2-(4-phosphonophenyl)acetamido)-2-hydroxy-3,4-dihydro-2H-benzo[e][1,2]oxaborinine-8-carboxylic acid] | > 128 | < 10 | > 128 | > 128 |  |  |  | 
10 | O=C(O)c1cccc2c1OB(O)[C@@H](NC(=O)C(NC(=O)N1CCN(Cc3ccc(O)c(O)c3Cl)C(=O)C1=O)c1ccc(P(=O)(O)O)cc1)C2 (stereo partly drawn) [Example 24, (3R)-3-(2-(4-(2-chloro-3,4-dihydroxybenzyl)-2,3-dioxopiperazine-1-carboxamido)-2-(4-phosphonophenyl)acetamido)-2-hydroxy-3,4-dihydro-2H-benzo[e][1,2]oxaborinine-8-carboxylic acid] |  | < 10 |  |  | < 10 | 2 to 4 (≈ 2.79 to 5.58 µM) | < 1 | < 1
11 | O=C(O)c1c(F)ccc2c1OB(O)[C@@H](NC(=O)C(NC(=O)N1CCN(Cc3ccc(O)c(O)c3Cl)C1=O)c1ccc(P(=O)(O)O)cc1)C2 (stereo partly drawn) [Example 46, (3R)-3-(2-(3-(2-chloro-3,4-dihydroxybenzyl)-2-oxoimidazolidine-1-carboxamido)-2-(4-phosphonophenyl)acetamido)-7-fluoro-2-hydroxy-3,4-dihydro-2H-benzo[e][1,2]oxaborinine-8-carboxylic acid] |  | < 10 |  |  | < 10 | 2 to 4 (≈ 2.83 to 5.66 µM) | < 1 | 2 to 4 (≈ 2.83 to 5.66 µM)
12 | O=C(NCCN1CCN(C(=O)NC(C(=O)N[C@H]2Cc3ccc(F)c(C(=O)O)c3OB2O)c2ccc(P(=O)(O)O)cc2)C(=O)C1=O)c1ccc(O)c(O)c1Cl (stereo partly drawn) [Example 120, (3R)-3-(2-(4-(2-(2-chloro-3,4-dihydroxybenzamido)ethyl)-2,3-dioxopiperazine-1-carboxamido)-2-(4-phosphonophenyl)acetamido)-7-fluoro-2-hydroxy-3,4-dihydro-2H-benzo[e][1,2]oxaborinine-8-carboxylic acid] |  | < 10 |  |  | < 10 | < 1 | < 1 | < 1
13 | O=C(N[C@@H](C(=O)N[C@H]1Cc2cccc(C(=O)O)c2OB1O)c1ccc(P(=O)(O)O)cc1)c1ccc(O)c(O)c1Cl [Example 49, (R)-3-((R)-2-(2-chloro-3,4-dihydroxybenzamido)-2-(4-phosphonophenyl)acetamido)-2-hydroxy-3,4-dihydro-2H-benzo[e][1,2]oxaborinine-8-carboxylic acid] |  | > 250 |  |  | < 10 | 2 to 4 (≈ 3.39 to 6.77 µM) | < 1 | < 1
14 | CCN1CCN(C(=O)N[C@@H](C(=O)N[C@H]2Cc3cccc(C(=O)O)c3OB2O)c2ccc(P(=O)(O)O)c(F)c2)C(=O)C1=O (single isomer, unassigned) [Example 7] | 32 to 64 (≈ 52.8 to 106 µM) |  | 8 to 16 (≈ 13.2 to 26.4 µM) | > 128 |  |  |  | 
15 | O=C(O)c1c(F)ccc2c1OB(O)[C@@H](NC(=O)C(NC(=O)N1CCN(Cc3ccc(O)c(O)c3Cl)C(=O)C1=O)c1ccc(P(=O)(O)O)c(F)c1)C2 (stereo partly drawn) [Example 23, (3R)-3-(2-(4-(2-chloro-3,4-dihydroxybenzyl)-2,3-dioxopiperazine-1-carboxamido)-2-(3-fluoro-4-phosphonophenyl)acetamido)-7-fluoro-2-hydroxy-3,4-dihydro-2H-benzo[e][1,2]oxaborinine-8-carboxylic acid] |  | < 10 |  |  | < 10 | < 1 | < 1 | < 1
16 | O=C(O)c1c(F)ccc2c1OB(O)[C@@H](NC(=O)C(NC(=O)N1CCN(Cc3cc(F)c(O)c(O)c3Cl)C(=O)C1=O)c1ccc(P(=O)(O)O)cc1)C2 (stereo partly drawn) [Example 45, (3R)-3-(2-(4-(2-chloro-5-fluoro-3,4-dihydroxybenzyl)-2,3-dioxopiperazine-1-carboxamido)-2-(4-phosphonophenyl)acetamido)-7-fluoro-2-hydroxy-3,4-dihydro-2H-benzo[e][1,2]oxaborinine-8-carboxylic acid] |  | < 10 |  |  | < 10 | < 1 | < 1 | < 1
